Data on 27 compounds can be found in US7776865B2, “Substituted pyrazolo[1,5-a]pyrimidines as protein kinase inhibitors” (Schering Corporation, priority 2005, dated 2010).

Molecules are shown by their SMILES. Where two headings read alike, the source gives them in different places.

The target of series [1] is T1, recombinant His-CHK1 (Homo sapiens, UniProt O14757).
T1 construct: His-CHK1, In House Lot P976, MW ˜30 KDa, stored at −80° C; fused on or other part: His tag
T1 sequence (O14757 1-265 limits assumed): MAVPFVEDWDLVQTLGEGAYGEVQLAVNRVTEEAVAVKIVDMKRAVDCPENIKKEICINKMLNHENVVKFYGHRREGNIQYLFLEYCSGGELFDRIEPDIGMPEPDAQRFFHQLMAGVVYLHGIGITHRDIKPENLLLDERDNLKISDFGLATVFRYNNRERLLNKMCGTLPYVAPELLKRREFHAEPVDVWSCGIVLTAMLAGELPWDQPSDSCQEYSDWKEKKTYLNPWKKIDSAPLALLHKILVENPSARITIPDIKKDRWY
Kind of series: CHK1 SPA Assay. In kind it is biochemical. The settings on record: CDC25C biotinylated peptide substrate, 1 uM ATP.

Series [2] concerns the target T2, CDK2/cyclin A (Homo sapiens, UniProt P24941).
T2 construct: made in house; host or cells: SF9 cells (recombinant baculovirus, pFASTBAC)
Put plainly: CDK2 Assay (in vitro kinase assay, cyclin A-dependent). The series is classed as biochemical.

Where [3] appears, read: SPA, biotinylated Histone H1 peptide substrate, read-out: CDK2/cyclin A IC50.
Setting [4] is: read-out: CDK2/cyclin A IC50, SPA, biotinylated Histone H1 peptide substrate.

`Cn1cc(-c2cnn3c(N)c(-c4ccncc4)c(C4CCCNC4)nc23)cn1` (centres unmarked): the IC50 turned out to be 229 nM in series [1] (CHK1 IC50 [nM]) and 11300 nM in series [2] (setting [3]).
With `Cn1cc(-c2cnn3c(N)c(-c4ccccc4)c(C4CCCNC4)nc23)cn1` (centres unmarked), the IC50 in series [1] (CHK1 IC50 [nM]) is 563 nM.
As for `Cn1cc(-c2cnn3c(N)c(-c4ccsc4)c(C4CCCNC4)nc23)cn1` (centres unmarked), the values for the IC50 in series [1] (CHK1 IC50 [nM]) and in series [2] (setting [3]) were 160 nM and 2150 nM, respectively.
For the compound `Cn1cc(-c2cnn3c(N)c(-c4ccoc4)c(C4CCCNC4)nc23)cn1` (centres unmarked), the IC50 in series [1] (CHK1 IC50 [nM]) stood at 340 nM.
On to `Cn1cc(-c2cnn3c(N)c(-c4cccnc4)c(C4CCCNC4)nc23)cn1` (centres unmarked), for which the IC50 was found to be 507 nM in series [1] (CHK1 IC50 [nM]) and 1480 nM in series [2] (setting [3]).
With `Cn1cc(-c2cnn3c(N)c(C4CC4)c(C4CCCNC4)nc23)cn1` (centres unmarked), the IC50 came to 17 nM in series [1] (CHK1 IC50 [nM]) and 167 nM in series [2] (setting [3]).
Turning to `C=C(C)c1c(C2CCCNC2)nc2c(-c3cnn(C)c3)cnn2c1N` (centres unmarked), the IC50 in series [1] (read-out: CHK1 IC50) worked out at 67 nM; in series [2], 201 nM.
For `Cn1cc(-c2cnn3c(N)c(-c4cnn(CCO)c4)c(C4CCCNC4)nc23)cn1` (centres unmarked), the IC50 in series [1] (read-out: CHK1 IC50) is 114 nM; in series [2], 11700 nM.
With `Cn1cc(-c2c(C3CCCNC3)nc3c(-c4cnn(C)c4)cnn3c2N)cn1` (centres unmarked), the IC50 was found to be 102 nM in series [1] (CHK1 IC50 [nM]) and 224000 nM in series [2] (setting [3]).
On to `COC/C=C/c1c(C2CCCNC2)nc2c(-c3cnn(C)c3)cnn2c1N` (centres unmarked), for which the IC50 in series [1] (CHK1 IC50 [nM]) came to 52 nM.
Same read-out and setting: with `Cn1cc(-c2cnn3c(N)c(-c4cccs4)c(C4CCCNC4)nc23)cn1` (centres unmarked) the figure was 86 nM.
For `CCc1c(C2CCCNC2)nc2c(-c3cnn(C)c3)cnn2c1N` (centres unmarked), the IC50 was 31 nM in series [1] (CHK1 IC50 [nM]) and 334 nM in series [2] (setting [3]).
Taken in the same sequence, the figures for `Cn1cc(-c2cnn3c(N)c(C#N)c(C4CCCNC4)nc23)cn1` (centres unmarked) were 102 nM and 1720 nM.
Regarding `CC(=O)c1c(C2CCCNC2)nc2c(-c3cnn(C)c3)cnn2c1N` (centres unmarked), the IC50 in series [1] (read-out: CHK1 IC50) was 8 nM; in series [2], 33 nM.
On to `CC(=NO)c1c(C2CCCNC2)nc2c(-c3cnn(C)c3)cnn2c1N` (centres unmarked), for which the IC50 in series [1] (read-out: CHK1 IC50) is 59 nM.
Turning to `CCC(=O)c1c(C2CCCNC2)nc2c(-c3cnn(C)c3)cnn2c1N` (centres unmarked), the IC50 was determined as 12 nM in series [1] (read-out: CHK1 IC50) and 38 nM in series [2].
For `Cn1cc(-c2cnn3c(N)c(C(=O)Cc4ccccc4)c(C4CCCNC4)nc23)cn1` (centres unmarked) the same measures were 47 nM and 103 nM.
Consider `CC#Cc1c(C2CCCNC2)nc2c(-c3cnn(C)c3)cnn2c1N` (centres unmarked), for which the IC50 in series [1] (CHK1 IC50 [nM]) was determined as 44 nM; in series [2] (setting [3]) it was 1290 nM.
`Cc1nc2c(Br)cnn2c(N)c1CC(N)=O`: the IC50 was determined as 4750 nM in series [1] (read-out: CHK1 IC50) and 1190 nM in series [2] (setting [4]).
Regarding `CNC(=O)Cc1c(C)nc2c(Br)cnn2c1N`, the IC50 in series [1] (read-out: CHK1 IC50) was > 50000 nM; in series [2] (setting [4]) it was 41300 nM.
For `Cc1nc2c(Br)cnn2c(N)c1CCO` the same measures were 29100 nM and 69 nM.
For `Cc1nc2c(Br)cnn2c(N)c1CCC(N)=O`, the results for the IC50 in series [1] (read-out: CHK1 IC50) and in series [2] (setting [4]) were > 50000 nM and 882 nM, respectively.
As for `Nc1c(-c2ccccc2)c(N2CC[C@H](N)C2)nc2c(Br)cnn12`, the melting point – broadly, the temperature, or range, at which the solid turns liquid – lay in the range of 167 to 170 °C. For the same compound, the IC50 in series [1] (read-out: CHK1 IC50) stood at 22600 nM.
Take `CCc1c(N2CC[C@H](N)C2)nc2c(Br)cnn2c1N`: the IC50 in series [1] (read-out: CHK1 IC50) came to 845 nM; in series [2] (setting [4]), 852 nM.
For `Cc1c(N2CC[C@H](N)C2)nc2c(Br)cnn2c1N` the same measures were 1580 nM and 754 nM.
As to `CC(O)c1c(C2CCCNC2)nc2c(-c3cnn(C)c3)cnn2c1N` (single isomer, unassigned) [drawing 212], the IC50 in series [1] (read-out: CHK1 IC50) came to 148 nM.
Still for that read-out and setting: with `CC(O)c1c(C2CCCNC2)nc2c(-c3cnn(C)c3)cnn2c1N` (single isomer, unassigned) [drawing 213] the figure was 18 nM.
